Experimental data reported in BindingDB's records for doi:10.1021/jm00148a009 (1985).

Molecular target: Prostacyclin synthase (Sus scrofa)
Test: Inhibition of porcine aorta prostacyclin PGI-2 synthase by bioassay method

IC50, > 100 µM:
c1cn(CCOc2ccc(-c3nnn[nH]3)cc2)cn1 [5-[4-(2-Imidazol-1-yl-ethoxy)-phenyl]-1H-tetrazole]
CC(=O)Nc1ccc(OCCn2ccnc2)cc1 [N-[4-(2-Imidazol-1-yl-ethoxy)-phenyl]-acetamide]
O=C(O)Cc1ccccc1OCCn1ccnc1 [[2-(2-Imidazol-1-yl-ethoxy)-phenyl]-acetic acid]
